Experimental data reported in patent publication US20240327417A1, “HETEROCYCLIC COMPOUNDS” (BeiGene Switzerland GmbH, priority 2021, published 2024).

How the values were obtained:
[1] = target: T1, Full length DGKζ (in-house protein M1-V929) (Homo sapiens, UniProt Q13574); test: Biochemical DGK IC50 assay (ADP-Glo, lipid micelle substrate), DGKζ; details: 0.5 nM enzyme, 140 μM ATP, 80 μM DAG, 1 hour preincubation, 1 hour reaction, room temperature, read-out: IC50s for DGKζ
T1 construct: His (N); TEV cleavage site (N); made in house; host or cells: Sf9 insect cells (baculovirus, Bac-to-Bac)
Method: (§1) Enzymatic reactions of DGKζ, DGKα and DGKδ were performed using ADP-Glo assay with lipid micelle substrate. […] Full length DGKα (D21-10BG, SignalChem) and full length DGKδ (D23-10G, SignalChem) were purchased. Lipid micelle was prepared by dissolving DAG (Sigma, 317505-10MG) and PS (Sigma, P7769-100MG) with chloroform which was firtherly removed by rotary evaporation. The obtained residue was resuspended in buffer containing 25 mM HEPES pH 7.0, 0.5 mM EDTA and 160 mM Octyl β-D glucopyranoside by vigorous mixing and ultrasonic (IID, Scientz).
(§2) The inhibition activities testing for the compound disclosed herein were carried out at room temperature in assay buffer containing 50 mM HEPES, 10 mM MgCl2, 0.01% BSA, 0.1 mM Na3VO4, 0.005% Tween-20 and 0.01 mM CaCl2. Compounds in DMSO were dispensed into wells of a black 384 well plate (Corning 4514) using D300e digital dispenser (Tecan). The ranges of compounds final concentration were 1.55˜10000 nM or 23.3˜150000 nM. 3 μL 2× enzyme solution was added to wells. […] After 1 hour reaction, 5 μL ADP-Glo reagent (Promga V9101) was added and incubated for 40 minutes. 10 μL Kinase Detection reagent was added and incubated for 30 minutes. Luminescence was measured on a microplate reader (PHERAstar FSX, BMG labtech). The IC50s are calculated based on inhibition of enzyme activity in the presence of increasing concentrations of compounds.
Human His-TEV-DGK-zeta-pFastBac1 and human baculovirus samples was generated using the Bac-to-Bac baculovirus expression system (Invitrogen) according to the manufacturer's protocol. The DNA used for expression of DGK-zeta, have SEQ ID Nos: 1. Baculovirus amplification was achieved using infected SF9 cells at 1:2000 virus/cells ratios, and grown for 96 hours at 27° C. post-transfected.
The expression scaled up for each protein was carried out in the […] from CORNING. 4 L of 3×10^6 cells/mL Sf9 cells (Expression System, Invitrogen) grown in SF900™ II SFM insect medium (Expression System) was infected with virus stock at 1:200 virus/cells ratio, and grown for 48 hours at 27° C. post-transfection. The infected cell culture was harvested by centrifugation at 6000 rpm for 15 min 4° C. in a SORVALL LYNX6000 centrifuge. The cell pellets were stored at −80° C.
Full length human DGKζ produced as described above, was purified from Sf9 baculovirus-infected insect cell paste. The cells were lysed using sonication method, and the lysates were clarified by centrifugation.

[2] = target: T2, Full length DGKα (D21-10BG, SignalChem) (Homo sapiens, UniProt P23743); test: Biochemical DGK IC50 assay (ADP-Glo, lipid micelle substrate), DGKα; details: 7.5 nM enzyme, 140 μM ATP, 80 μM DAG, 1 hour preincubation, 1 hour reaction, room temperature, read-out: IC50s for DGKα
T2 construct: Full length DGKα (D21-10BG, SignalChem); purchased SignalChem D21-10BG
Method: as §1, §2

T1 sequence (Q13574 1-929 isoform Q13574-4): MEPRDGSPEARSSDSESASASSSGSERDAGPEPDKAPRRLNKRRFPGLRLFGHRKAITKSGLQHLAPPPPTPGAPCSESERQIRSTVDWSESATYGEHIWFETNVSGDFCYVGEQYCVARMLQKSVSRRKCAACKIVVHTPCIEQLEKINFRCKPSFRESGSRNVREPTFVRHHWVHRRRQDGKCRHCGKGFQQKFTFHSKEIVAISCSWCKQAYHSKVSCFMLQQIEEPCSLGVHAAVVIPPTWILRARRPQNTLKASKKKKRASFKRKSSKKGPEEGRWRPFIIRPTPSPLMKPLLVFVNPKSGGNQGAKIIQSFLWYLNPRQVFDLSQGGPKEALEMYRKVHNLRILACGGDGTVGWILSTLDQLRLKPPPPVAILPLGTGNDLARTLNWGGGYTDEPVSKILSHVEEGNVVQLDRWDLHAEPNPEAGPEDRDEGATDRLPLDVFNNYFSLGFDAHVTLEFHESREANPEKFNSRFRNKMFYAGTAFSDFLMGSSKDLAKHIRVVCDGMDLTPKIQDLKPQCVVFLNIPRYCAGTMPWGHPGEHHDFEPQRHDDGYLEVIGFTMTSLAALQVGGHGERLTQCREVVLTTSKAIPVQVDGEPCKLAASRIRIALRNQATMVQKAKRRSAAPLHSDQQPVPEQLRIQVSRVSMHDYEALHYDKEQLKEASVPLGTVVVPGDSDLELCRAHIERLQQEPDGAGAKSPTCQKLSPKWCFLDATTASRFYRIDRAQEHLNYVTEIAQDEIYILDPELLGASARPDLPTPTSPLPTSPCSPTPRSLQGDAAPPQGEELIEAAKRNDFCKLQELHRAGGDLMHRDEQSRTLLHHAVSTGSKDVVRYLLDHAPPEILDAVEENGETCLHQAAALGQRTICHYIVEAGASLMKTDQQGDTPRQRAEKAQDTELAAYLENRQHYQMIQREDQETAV
T2 sequence (P23743 whole entry): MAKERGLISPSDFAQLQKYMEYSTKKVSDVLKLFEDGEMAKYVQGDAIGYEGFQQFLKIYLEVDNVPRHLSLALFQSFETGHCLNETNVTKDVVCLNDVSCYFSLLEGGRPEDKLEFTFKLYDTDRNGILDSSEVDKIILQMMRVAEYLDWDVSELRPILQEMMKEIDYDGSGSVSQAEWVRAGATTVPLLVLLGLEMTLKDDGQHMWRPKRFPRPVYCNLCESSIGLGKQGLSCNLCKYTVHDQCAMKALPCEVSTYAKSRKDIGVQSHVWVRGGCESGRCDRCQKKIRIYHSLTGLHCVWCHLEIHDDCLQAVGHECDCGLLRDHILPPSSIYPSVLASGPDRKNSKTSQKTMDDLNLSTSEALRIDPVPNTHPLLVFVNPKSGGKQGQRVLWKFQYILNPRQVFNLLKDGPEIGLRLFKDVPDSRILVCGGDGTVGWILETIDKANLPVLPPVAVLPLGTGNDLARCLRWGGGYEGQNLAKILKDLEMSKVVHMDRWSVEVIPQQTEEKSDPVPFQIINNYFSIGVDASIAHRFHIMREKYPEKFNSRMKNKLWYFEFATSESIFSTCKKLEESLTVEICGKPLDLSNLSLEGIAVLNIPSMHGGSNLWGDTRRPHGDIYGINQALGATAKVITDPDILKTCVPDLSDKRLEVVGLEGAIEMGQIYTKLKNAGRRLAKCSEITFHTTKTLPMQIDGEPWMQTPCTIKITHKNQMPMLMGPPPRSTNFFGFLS

| SMILES | IC50 [1] [nM] | IC50 [2] [nM] |
| --- | --- | --- |
| CC#CCc1cn2c(n1)c(N1C[C@@H](CC)N(C(C)c3ccc4ncsc4c3F)C[C@@H]1CC)cc(=O)n2C (single isomer, unassigned) [Compound A117a] | 48 | 22 |
| CC[C@H]1CN(C(C)c2ccc3nccnc3c2)[C@H](CC)CN1c1cc(=O)[nH]n2cc(CC#N)nc12 (stereo partly drawn) [Compound A15, 2-(8-((2S,5R)-2,5-diethyl-4-(1-(quinoxalin-6-yl)ethyl)piperazin-1-yl)-6-oxo-5,6-dihydroimidazo[1,2-b]pyridazin-2-yl)acetonitrile] | 3870 | 4380 |
| CC[C@H]1CN(C(C)c2ccc3nc(C)sc3n2)[C@H](CC)CN1c1c(C#N)c(=O)n(C)n2cc(CC#N)nc12 (single isomer, unassigned) [Compound A112b] | 118 | 60 |
| CC[C@H]1CN(C(C)c2ccc(OC)cn2)[C@H](CC)CN1c1cc(=O)n(C)n2cc(CC#N)nc12 (stereo partly drawn) [Compound A48, 2-(8-((2S,5R)-2,5-diethyl-4-(1-(5-methoxypyridin-2-yl)ethyl)piperazin-1-yl)-5-methyl-6-oxo-5,6-dihydroimidazo[1,2-b]pyridazin-2-yl)acetonitrile] | 445 | 30 |
| CC[C@@H]1CN(c2cc(=O)n(C)n3cc(CC#N)nc23)[C@@H](C)CN1C(C)c1ccc2cc(C)sc2n1 (stereo partly drawn) [Compound A87, 2-(8-((2S,5R)-5-ethyl-2-methyl-4-(1-(2-methylthieno[2,3-b]pyridin-6-yl)ethyl)piperazin-1-yl)-5-methyl-6-oxo-5,6-dihydroimidazo[1,2-b]pyridazin-2-yl)acetonitrile] | 11 | 112 |
| [2H]C([2H])([2H])c1nc2ccc(C(C)N3C[C@H](CC)N(c4cc(=O)n(C([2H])([2H])[2H])n5cc(CC#N)nc45)C[C@H]3CC)cc2s1 (single isomer, unassigned) [Compound A97b] | 1150 | 1160 |
| CC[C@H]1CN(C(C)c2ccc3nc(C)sc3n2)[C@H](CC)CN1c1cc(=O)n(C)n2cc(CC#N)nc12 (single isomer, unassigned) [Compound A58b] | 7.3 | 13.3 |
| CC[C@H]1CN(C(C)c2ccc(C(F)(F)F)cc2)[C@H](CC)CN1c1cc(=O)n(C)n2cc(CC#N)nc12 (single isomer, unassigned) [Compound A91a] | 73 | 155 |
| CC[C@H]1CN(C(C)c2ccc3nc(C)sc3c2)[C@H](CC)CN1c1cc(=O)n(C)n2cc(C=NOC)nc12 (single isomer, unassigned) [Compound A123a] | 4890 | 269 |
| CC[C@H]1CN(C(C)c2ccc(C(C)(C)F)nc2)[C@H](CC)CN1c1cc(=O)n(C)n2cc(CC#N)nc12 (single isomer, unassigned) [Compound A46a] | 6.4 | 122 |
| CC[C@@H]1CN(c2c(C#N)c(=O)n(C)n3cc(CC#N)nc23)[C@@H](C)CN1C(C)c1ccc2nc(C)sc2n1 (single isomer, unassigned) [Compound A113b] | 2910 | 651 |
| CC(c1ccc2c(c1)OC(C)(C)CO2)N1C[C@H](C)N(c2c(F)c(=O)n(C)n3cc(CC#N)nc23)C[C@H]1C (single isomer, unassigned) [Compound A26b] | 2140 | 2110 |
| CC[C@H]1CN(C(C)c2ccc(C(C)(C)O)nc2)[C@H](CC)CN1c1cc(=O)n(C)n2cc(CC#N)nc12 (stereo partly drawn) [Compound A41, 2-(8-((2S,5R)-2,5-diethyl-4-(1-(6-(2-hydroxypropan-2-yl)pyridin-3-yl)ethyl)piperazin-1-yl)-5-methyl-6-oxo-5,6-dihydroimidazo[1,2-b]pyridazin-2-yl)acetonitrile] | 844 | 1270 |
| CC[C@H]1CN(C(C)c2ccc3scnc3c2)[C@H](CC)CN1c1cc(=O)n(C)n2cc(CC#N)nc12 (stereo partly drawn) [Compound A65, 2-(8-((2S,5R)-4-(1-(benzo[d]thiazol-5-yl)ethyl)-2,5-diethylpiperazin-1-yl)-5-methyl-6-oxo-5,6-dihydroimidazo[1,2-b]pyridazin-2-yl)acetonitrile] | 18 | 36 |
| CC[C@@H]1CN(c2cc(=O)n(C)n3cc(CC#N)nc23)[C@@H](C)CN1C(C)c1ccc2nc(C)sc2c1F (single isomer, unassigned) [Compound A63b] | 1790 | 5780 |
| CC[C@@H]1CN(c2cc(=O)n(C)n3cc(CC#N)nc23)[C@@H](C)CN1C(C)c1ccc(C2CC2)nc1 (single isomer, unassigned) [Compound A43a] | 202 | 285 |
| CC[C@@H]1CN(c2cc(=O)n(C)n3cc(CC#N)nc23)[C@@H](C)CN1C(C)c1ccc2ncsc2n1 (single isomer, unassigned) [Compound A80a] | 44 |  |

The remaining lines, values ahead:

| IC50 [1] [nM] | IC50 [2] [nM] | SMILES |
| --- | --- | --- |
| 2610 | 1580 | CC[C@H]1CN(C(C)c2cc3scnc3cc2F)[C@H](CC)CN1c1cc(=O)n(C)n2cc(CC#N)nc12 (single isomer, unassigned) [Compound A59b] |
| 886 | 466 | CC[C@H]1CN(C(C)c2ccc(C3CC3(F)F)nc2)[C@H](CC)CN1c1cc(=O)n(C)n2cc(CC#N)nc12 (single isomer, unassigned) [Compound A70b] |
| 313 | 74 | CC[C@@H]1CN(c2cc(=O)n(C)n3cc(C=NOC)nc23)[C@@H](C)CN1C(C)c1ccc2nccnc2c1 (single isomer, unassigned) [Compound A9b] |
| 39 | 72 | CC[C@H]1CN(C(C)c2ccc(C3(F)CC3)cc2)[C@H](CC)CN1c1cc(=O)n(C)n2cc(CC#N)nc12 (stereo partly drawn) [Compound A88, 2-(8-((2S,5R)-2,5-diethyl-4-(1-(4-(1-fluorocyclopropyl)phenyl)ethyl)piperazin-1-yl)-5-methyl-6-oxo-5,6-dihydroimidazo[1,2-b]pyridazin-2-yl)acetonitrile] |
| 11 | 21 | CCC(c1ccc2nc(C)sc2n1)N1C[C@H](CC)N(c2cc(=O)n(C)n3cc(CC#N)nc23)C[C@H]1CC (single isomer, unassigned) [Compound A99b] |
| > 10000 | 708 | CC#CCc1cn2c(n1)c(N1C[C@@H](CC)N(C(C)c3ccc4nc(C)sc4c3F)C[C@@H]1CC)cc(=O)n2C (single isomer, unassigned) [Compound A116b] |
| 1130 | 1970 | CC(c1ccc2c(c1)OC(F)(F)O2)N1C[C@H](C)N(c2cc(=O)n(C)n3cc(CC#N)nc23)C[C@H]1C (stereo partly drawn) [Compound A31, 2-(8-((2S,5R)-4-(1-(2,2-difluorobenzo[d][1,3]dioxol-5-yl)ethyl)-2,5-dimethylpiperazin-1-yl)-5-methyl-6-oxo-5,6-dihydroimidazo[1,2-b]pyridazin-2-yl)acetonitrile] |
| > 10000 | 2000 | CC[C@H]1CN(C(C)c2ccc3nc(C)sc3n2)[C@H](CC)CN1c1cc(=O)n(C)n2cc(C=NOC)nc12 (single isomer, unassigned) [Compound A124a] |
| 75 | 18 | CC[C@H]1CN(C(C)c2ccc(C3CC3)cn2)[C@H](CC)CN1c1cc(=O)n(C)n2cc(CC#N)nc12 (stereo partly drawn) [Compound A52, 2-(8-((2S,5R)-4-(1-(5-cyclopropylpyridin-2-yl)ethyl)-2,5-diethylpiperazin-1-yl)-5-methyl-6-oxo-5,6-dihydroimidazo[1,2-b]pyridazin-2-yl)acetonitrile] |
| 8160 |  | CC[C@@H]1CN(c2cc(=O)n(C)n3cc(CC#N)nc23)[C@@H](C)CN1C(C)c1ccc2ncsc2n1 (single isomer, unassigned) [Compound A80b] |
| 1260 |  | CC[C@H]1CN(C(C)c2ccc3ncsc3n2)[C@H](CC)CN1c1c(F)c(=O)n(C)n2cc(CC#N)nc12 (single isomer, unassigned) [Compound A81a] |
| 32 |  | CC[C@H]1CN(C(C)c2ccc3ncsc3n2)[C@H](CC)CN1c1c(F)c(=O)n(C)n2cc(CC#N)nc12 (single isomer, unassigned) [Compound A81b] |
